Assays:
Format in all cases: cell-based
[1] = molecular target: T1, human muscarinic M3 receptor (Homo sapiens, UniProt P20309); experiment: Alphascreen Surefire phospho-ERK1/2 functional assay, CHO cells expressing M3; conditions: for Emax: CHO, read-out: % Emax cf. ACh, M3; for EC50: agonist, CHO cells, phospho-ERK1/2, read-out: pEC50 M3 (converted)
T1 construct: expressed in transfected cells
Description: (§1) ERK1/2 phosphorylation is a downstream consequence of both Gq/11 and Gi/o protein coupled receptor activation, making it highly suitable for the assessment of M1, M3 (Gq/11 coupled) and M2, M4 receptors (Gi/o coupled), rather than using different assay formats for different receptor subtypes. CHO cells stably expressing the human muscarinic M1, M2, M3 or M4 receptor were plated (25K/well) onto 96-well tissue culture plates in MEM-alpha+10% dialysed FBS. Once adhered, cells were serum-starved overnight. Agonist stimulation was performed by the addition of 5 μL agonist to the cells for 5 min (37° C.). Media was removed and 50 μL of lysis buffer added. After 15 min, a 4 μL sample was transferred to 384-well plate and 7 μL of detection mixture added.

[2] = molecular target: T2, human muscarinic M2 receptor (Homo sapiens, UniProt P08172); experiment: Alphascreen Surefire phospho-ERK1/2 functional assay, CHO cells expressing M2; conditions: for Emax: CHO, read-out: % Emax cf. ACh, M2; for EC50: agonist, CHO cells, phospho-ERK1/2, read-out: pEC50 M2 (converted)
T2 construct: expressed in transfected cells
T2 sequence (P08172 1-466): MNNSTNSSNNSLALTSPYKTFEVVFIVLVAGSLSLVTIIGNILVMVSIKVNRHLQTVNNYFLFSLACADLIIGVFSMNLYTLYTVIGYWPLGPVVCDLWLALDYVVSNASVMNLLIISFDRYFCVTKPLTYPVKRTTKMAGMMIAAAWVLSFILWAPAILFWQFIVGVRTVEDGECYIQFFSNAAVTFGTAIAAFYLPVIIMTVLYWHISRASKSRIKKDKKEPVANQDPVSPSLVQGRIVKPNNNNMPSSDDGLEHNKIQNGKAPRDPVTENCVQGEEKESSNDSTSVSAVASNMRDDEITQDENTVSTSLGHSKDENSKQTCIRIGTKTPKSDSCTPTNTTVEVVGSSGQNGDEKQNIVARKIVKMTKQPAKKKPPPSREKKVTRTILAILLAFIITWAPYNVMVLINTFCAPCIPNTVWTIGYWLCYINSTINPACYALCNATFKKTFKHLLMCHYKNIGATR
Description: as §1

[3] = molecular target: T3, human muscarinic M1 receptor (Homo sapiens, UniProt P11229); experiment: Alphascreen Surefire phospho-ERK1/2 functional assay, CHO cells expressing M1; conditions: for Emax: CHO, read-out: % Emax cf. ACh, M1; for EC50: agonist, CHO cells, phospho-ERK1/2, read-out: pEC50 M1 (converted)
T3 construct: expressed in transfected cells
T3 sequence (P11229 1-460): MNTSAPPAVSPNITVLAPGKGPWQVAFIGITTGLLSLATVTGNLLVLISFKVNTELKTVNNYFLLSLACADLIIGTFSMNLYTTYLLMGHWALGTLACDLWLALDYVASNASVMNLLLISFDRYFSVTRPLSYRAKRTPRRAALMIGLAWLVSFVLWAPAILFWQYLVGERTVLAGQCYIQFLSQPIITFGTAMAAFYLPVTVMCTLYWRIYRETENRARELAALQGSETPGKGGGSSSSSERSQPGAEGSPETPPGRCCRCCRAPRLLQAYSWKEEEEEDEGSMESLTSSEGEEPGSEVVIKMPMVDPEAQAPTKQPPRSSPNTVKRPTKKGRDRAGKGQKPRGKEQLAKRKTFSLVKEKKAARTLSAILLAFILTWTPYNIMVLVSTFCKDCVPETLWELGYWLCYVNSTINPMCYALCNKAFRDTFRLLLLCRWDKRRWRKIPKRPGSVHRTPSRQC
Description: as §1

[4] = molecular target: T4, human muscarinic M4 receptor (Homo sapiens, UniProt P08173); experiment: Alphascreen Surefire phospho-ERK1/2 functional assay, CHO cells expressing M4; conditions: for Emax: CHO, read-out: % Emax cf. ACh, M4; for EC50: agonist, CHO cells, phospho-ERK1/2, read-out: pEC50 M4 (converted)
T4 construct: expressed in transfected cells
T4 sequence (P08173 1-479): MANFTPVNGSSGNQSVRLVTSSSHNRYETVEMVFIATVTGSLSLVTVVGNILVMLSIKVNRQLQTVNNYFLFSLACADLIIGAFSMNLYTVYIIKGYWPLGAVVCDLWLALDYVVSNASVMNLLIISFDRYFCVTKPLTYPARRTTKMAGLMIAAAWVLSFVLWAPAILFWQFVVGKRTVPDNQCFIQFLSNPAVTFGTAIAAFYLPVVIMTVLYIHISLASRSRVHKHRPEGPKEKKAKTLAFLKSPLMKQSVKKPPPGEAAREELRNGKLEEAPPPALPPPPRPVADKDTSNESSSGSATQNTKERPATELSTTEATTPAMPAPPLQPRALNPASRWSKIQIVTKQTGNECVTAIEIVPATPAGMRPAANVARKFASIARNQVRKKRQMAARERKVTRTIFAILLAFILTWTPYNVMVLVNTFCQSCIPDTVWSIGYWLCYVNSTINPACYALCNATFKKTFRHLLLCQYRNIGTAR
Description: as §1

T1 sequence (P20309 whole entry): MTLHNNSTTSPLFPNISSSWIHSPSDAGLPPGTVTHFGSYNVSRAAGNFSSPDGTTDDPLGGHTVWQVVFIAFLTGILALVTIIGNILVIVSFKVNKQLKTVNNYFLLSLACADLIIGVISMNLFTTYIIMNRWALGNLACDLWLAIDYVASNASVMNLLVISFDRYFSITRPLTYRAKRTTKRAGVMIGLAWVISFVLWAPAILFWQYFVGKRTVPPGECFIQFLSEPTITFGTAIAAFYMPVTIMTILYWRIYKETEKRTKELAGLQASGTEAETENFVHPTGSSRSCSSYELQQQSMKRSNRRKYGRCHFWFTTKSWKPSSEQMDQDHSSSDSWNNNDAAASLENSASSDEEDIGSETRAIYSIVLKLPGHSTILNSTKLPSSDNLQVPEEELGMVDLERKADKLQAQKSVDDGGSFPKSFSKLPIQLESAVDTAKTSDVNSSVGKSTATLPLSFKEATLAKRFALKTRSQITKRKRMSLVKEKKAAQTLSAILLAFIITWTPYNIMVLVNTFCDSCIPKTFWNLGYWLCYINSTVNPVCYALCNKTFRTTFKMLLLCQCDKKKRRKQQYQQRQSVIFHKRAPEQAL

Compound	Emax [1] [%]	EC50 [1] [nM]	Emax [2] [%]	EC50 [2] [nM]	Emax [3] [%]	EC50 [3] [nM]	Emax [4] [%]	EC50 [4] [nM]
CCOC(=O)N1CC2(CC(N3CCC(N4CCC[C@@H]4c4cnco4)CC3)C2)C1 [Example 1-6]	16	> 20000	4	> 20000	67	631	105	12.6
CCOC(=O)N1CC2(CC(N3CCC(N4CCC[C@@H]4c4cn(C)c(=O)o4)CC3)C2)C1 [Example 1-7, Ethyl 6-{4-[(2R)-2-(3-methyl-2-oxo-2,3-dihydro-1 ,3-oxazol-5yl)pyrrolidin-1-yl]piperidin-1-yl}-2-azaspiro[3.3]heptane-2-carboxylate]	6	> 20000	10	> 20000	12	> 20000	49	39.8
CCOC(=O)N1CC2(CC(N3CCC(N4CC(F)(F)C[C@@H]4CO)CC3)C2)C1 [Example 1-12, Ethyl 6-{4-[(2R)-4,4-difluoro-2-(hydroxymethyl)pyrrolidin-1-yl]piperidin-1-yl}-2-azaspiro[3.3]heptane-2-carboxylate]	11	> 20000	7	> 20000	63	251	88	31.6

Reference: patent US11324738B2, “Muscarinic agonists” (Heptares Therapeutics Limited, priority 2015, dated 2022)
